“Also recorded” adds a separate entry of the source.
Experiments:
[1] = tested on: patients with suspicion of vestibular neuritis; assay: Clinical study of vestibular deficit following acute vestibular neuritis (VNG, hospitalization, first walk); format: in vivo, human; conditions: 5 days treatment, ondansetron 8 mg/d vs metoclopramide 30 mg/d, n=10 each; for vestibular deficit, VNG at 1 month / vestibular deficit, early VNG (caloric tests): with methylprednisolone and valacyclovir; for vestibular deficit, VNG at 1 month: p=0.07; for vestibular deficit, early VNG (caloric tests): VNG 24 to 48 hours after beginning of deficit; for vestibular deficit, early VNG (caloric tests) / hospitalization duration: p=0.03; for time of first walk: p=0.001
Method: Methods: A clinical study conducted by the inventors at the Centre Hospitalier Universitaire (CHU) of Montpellier was carried out. Random clinical tests were performed on 20 patients. Patients were selected on the suspicion of vestibular neuritis started for less than 24 h before the hospitalization. The patients were all administered with methylprednisolone and valacyclovir, and either a 5 days treatment with Metoclopramide (30 mg/d, n=10) or with Ondansetron (8 mg/d, n=10). The functional evaluation was based on a early VNG (vestibulonystagmography) test (realized 24 to 48 hours after the beginning of the vestibular deficit) and a VNG at 1 month. The hospitalization duration and the date of the first walk were also recorded.

[2] = tested on: IDPN-induced bilateral vestibular deficit; assay: Behavioral evaluation of bilateral (nitrile, IDPN)-induced vestibular deficit; format: in vivo, rat
From the text: Vestibular rating score was estimated as previously described (Brugeaud et al., 2007; Boadas-Vaello et al. 2005). Animals were scored from range 0 to 4, respectively corresponding to normal behavior to maximal vestibular deficit. Rating 1 means that the behavior is not normal but no specific vestibular deficit is effectively determined; rating 2 corresponds to an identified but slight vestibular deficit and, rating 3 describes an identified and evident deficit. Six different tests were sequentially scored and totalized to rate the vestibular deficit: 1—the head bobbing, when abnormal intermittent backward extension of the neck was observed; 2—the circling stereotyped movement ranging from none to compulsive circles around the animal hips; 3—the retro-pulsion, a typical backward walk reflecting vestibular disturbance; 4—the tail-hanging reflex, that normally induces a normal forelimb extension to reach the ground, results in the ventral bent of the body and grip of the tail when the vestibular deficit is maximal; 5—the contact-inhibition reflex normally leads animal hold to a metal grid in a subpine position to return when their back touch the ground; in case of vestibular deficit with a lack in the body orientation referential, this reflex is abolished, the animal stays griped to the grid in a supine position; 6—the air-righting reflex is necessary for animals to land on their feet when they fall from a supine position; vestibular dysfunction impairs this normal reversal, a maximal deficit leads the animal to land on its back when dropped from a height of 40 cm onto a foam cushion. Vestibular rating scores were expressed for each time point as a percentage of the t0 score.
Validation of the restorative effect of said serotonin 5-HT3 antagonist is also assessed on animal model of bilateral vestibular deficit by analysing the time course of arrival and removal of both excitotoxic lesions and ensuing vestibular deficit following intoxication with nitriles (IP injection—Seoane et al., J. Comp. Neurol. 2001, 439:385-399). […] Protection is assessed by administration of said serotonin 5-HT3 antagonist following different schedules (at the start of chronic intoxication; 24 and 48 h after).
IDPN (1 g/kg; ip) induces bilateral and permanent vestibular damage through destruction of the vestibular sensory epithelium. […] We assessed the effect of IDPN injection using behavioral testing of vestibular deficits. We evaluated the protective effect of single or double injections of ondansetron throughout the time course of injury progression following IDPN injection to determine the vestibuloprotective potential of ondansetron. […]

[3] = tested on: kainate-induced unilateral vestibular deficit; assay: Behavioral evaluation of excitotoxically (kainate)-induced unilateral vestibular deficit; format: in vivo, rat; conditions: 4 mg/kg ip 1 h after transtympanic KA injection; 24 h after KA; vs untreated; p=0.022 Mann Whitney
Method: Validation of the restorative effect of said serotonin 5-HT3 antagonist is assessed by analysing the time course of arrival and removal of both excitotoxic lesions and ensuing vestibular deficit that occur within vestibular endorgans during intra auricular application of glutamate agonists. In the vestibular endorgans, massive application of kainic acid induces excitotoxic impairments of the neuronal network in the sensory organs (swelling of terminals that contact hair cells-Brugeaud et al., 2007). Histological studies of the expansion and reduction of excitotoxic lesions are undertaken using light and electron microscopy. Behavioural evaluation of vestibular deficit is undertaken using specific behavioural tests of the vestibular function. Under the paradigm developed in the rat, transtympanic application of kainic acid allows its diffusion into the inner ear. […] We evaluate the effect of KA injection using behavioral testing of vestibular deficits and histological quantification of the induced lesion. […] Animals were scored from range 0 to 4, respectively corresponding to normal behavior to maximal vestibular deficit. Rating 1 means that the behavior is not normal but no specific vestibular deficit is effectively determined; rating 2 corresponds to an identified but slight vestibular deficit and, rating 3 describes an identified and evident deficit. […]

[4] = tested on: hair cells and synaptic terminals of vestibular sensory epithelia (utricles); assay: Histological and morphometric evaluation of kainate-induced vestibular lesions; format: in vivo, rat; conditions: 4 mg/kg ip 1 h after KA
Method: 1 h after KA injection, vestibular behavior of the animals was tested followed by ondansetron injection in the treatment group. […] Subsequently, the animals were tested at 2 h, 6 h, 24 h and 48 h after KA injection. Histological and morphometric analysis were performed at 2 and 24 hours after KA injection in the presence and absence of ondansetron treatment.
Preparation of semi-thin sections of sensory epithelia. We anesthetized female adult rats (Wistar; 200-220 g; n=3 for each treatment) with pentobarbital (0.4%). Animals were perfused transcardially with heparin PBS (0.01M) followed by a fixative solution (2% paraformaldehyde, 2.5% glutaraldehyde 1% picric acid, 5% sucrose) and samples post-fixed. […] Whole vestibular organs were postfixed in 2% OsO4, dehydrated, embedded in Araldite, and 1 μm thick sections were cut. A Nanozoomer Slide Scanner (RIO imaging, Montpellier, France) allowed the observation and scanning of samples mounted on slides.
Scans of semi-thin sections acquired with the Nanozoomer Slide Scanner were analyzed. Quantification of hair cells in utricles was done with Metamorph software (Universal Imaging). For each lesioned and contralateral ear, 3 sections distant of 20 to 25 μm each were analyzed. Thus, 400 cells for each epithelium were counted for each treatment on 3 different animals with the contralateral ear as pooled control. […] ANOVA was used to search for statistical difference, followed by Tukey Test to compare between treatments.

[5] = Stability of solution comprising ondansetron base; format: physicochemical; conditions: 1 month storage
Method: Chemical stability of the solution was also assessed: […]

SMILES | vestibular deficit, VNG at 1 month [1] | vestibular deficit, VNG at 1 month ([1]; listed as M) [%] | vestibular deficit, early VNG (caloric tests) [1] | vestibular deficit, early VNG (caloric tests) ([1]; listed as metoclopramid) | time of first walk [1] [days] | hospitalization duration [1] [days] | time course of increasing vestibular deficits ([2]; 1 dose 4 mg/kg ip 24 h after IDPN injection) | time course of increasing vestibular deficits ([2]; 1 dose 4 mg/kg ip 48 h after IDPN injection) | time course of increasing vestibular deficits ([2]; 1 dose 4 mg/kg ip simultaneously with IDPN 1 g/kg ip) | time course of increasing vestibular deficit / vestibular deficits at 54 h ([2]; 2 doses 4 mg/kg ip 24 and 48 hours after IDPN injection, at 54 h, 4 mg/kg) | vestibular deficits (vestibular rating score) at 24 hours [3] | number of not-determined hair cells ([4]; 24 hrs after the KA lesion, P<0.01) | number of type I hair cells ([4]; 24 hrs after the KA lesion, p<0.01) | maturation of neo-formed synaptic terminals (photonic microscopy) ([4]; 24 hrs after the lesion) | chemical degradation with pH modification [5] | vestibular deficit, VNG at 1 month ([1]; listed as O) [%]
CCN(CC)CCNC(=O)c1cc(Cl)c(N)cc1OC [Metoclopramide] | 63,4% | 63.4 | 84.38% | 84,38% | 2.25 | 4.5 |  |  |  |  |  |  |  |  |  | 
Cc1nccn1CC1CCc2c(c3ccccc3n2C)C1=O (centres unmarked) [Ondansetron, 1,2,3,9-tetrahydro-9-methyl-3-[(2-methyl-1H-imidazol-1-yl)methyl]-4H-carbazol-4-one] | 43,0% |  | 56,53% |  | 1.25 | 2.88 | not significantly altered | not significantly altered | not significantly altered | significant modification; also recorded: significantly less severe | significantly reduced | significantly reduced | significantly increased | seemed to potentiate | not associated to significant chemical degradation | 43
